Where a name gives a salt, the structure may show the parent alone.
Legend:
[1] = test system: patients with seasonal allergic rhinitis (SAR); test: MP 428 study: Adult Rhinoconjunctivitis Quality of Life Questionnaire outcomes, change from baseline; type: in vivo, human; details: Day 14/ET; Intent-to-Treat Population
[2] = test system: patients with seasonal allergic rhinitis (SAR); test: MP 428 study: adverse events, Safety Population; type: in vivo, human
Procedure: A two-week, randomized, double-blind study, which evaluated the effects of the co-administration of ASTELIN® (azelastine hydrochloride (HCl)) and FLONASE® (fluticasone propionate) compared to either product alone in patients with seasonal allergic rhinitis (SAR) was conducted during the 2006 Texas mountain cedar season. After a 5-day placebo lead-in period, 151 patients with moderate-to-severe allergic rhinitis symptoms were randomized to either: (1) (49 total patients) ASTELIN® (azelastine hydrochloride (HCl)) plus placebo saline nasal spray 2 sprays per nostril, 15 minutes apart, twice daily (AM & PM); (2) (50 total patients) FLONASE® (fluticasone propionate) plus placebo saline nasal spray, 2 sprays per nostril, 15 minutes apart, once daily (AM) and two sessions of placebo saline nasal spray, 2 sprays per nostril, 15 minutes apart (PM); or (3) (52 total patients) the co-administration of ASTELIN® (azelastine hydrochloride (HCl)) 2 sprays per nostril plus FLONASE® (fluticasone propionate) 2 sprays per nostril (AM), 15 minutes apart, and ASTELIN® (azelastine hydrochloride (HCl)) 2 sprays per nostril plus placebo saline nasal spray, 15 minutes apart, (PM) for a 2-week double-blind treatment period.
The most common adverse events (AEs) were bitter taste (8.2% in ASTELIN® (azelastine hydrochloride (HCl)) group, 2.0% in FLONASE® (fluticasone propionate) group, 13.5% in co-administration group) and headache (4.1% in ASTELIN® (azelastine hydrochloride (HCl)) group, 4.0% in FLONASE® (fluticasone propionate) group, 5.8% in co-administration group). No other AE was reported by more than one patient in any treatment group. There were no discontinuations due to AEs.

[3] = Possibly related to study drug, Safety Population
[4] = Probably related to study drug, Safety Population

CN1CCCC(n2nc(Cc3ccc(Cl)cc3)c3ccccc3c2=O)CC1 (racemic) [Azelastine, (±)-1-(2H)-phthalazinone, 4-[(4-chlorophenyl)methyl]-2-(hexahydro-1-methyl-1H-azepin-4-yl)-, mono-hydrochloride]
RQLQ Change From Baseline in Activity, LS Mean [1]: −1.37
RQLQ Change From Baseline in Activity, Mean [1]: −1.25
RQLQ Change From Baseline in Activity, Median [1]: −1.00
RQLQ Change From Baseline in Emotional, LS Mean [1]: −1.26
RQLQ Change From Baseline in Emotional, Mean [1]: −1.13
RQLQ Change From Baseline in Emotional, Median [1]: −1.00
RQLQ Change From Baseline in Eye Symptoms, LS Mean [1]: −1.64
RQLQ Change From Baseline in Eye Symptoms, Mean [1]: −1.49
RQLQ Change From Baseline in Eye Symptoms, Median [1]: −1.25
RQLQ Change From Baseline in Nasal Symptoms, LS Mean [1]: −1.46
RQLQ Change From Baseline in Nasal Symptoms, Mean [1]: −1.31
RQLQ Change From Baseline in Nasal Symptoms, Median [1]: −1.25
RQLQ Change From Baseline in Non-nose/eye Symptoms, LS Mean [1]: −0.88
RQLQ Change From Baseline in Non-nose/eye Symptoms, Mean [1]: −0.82
RQLQ Change From Baseline in Non-nose/eye Symptoms, Median [1]: −0.86
RQLQ Change From Baseline in Overall Score, LS Mean [1]: −1.21
RQLQ Change From Baseline in Overall Score, Mean [1]: −1.11
RQLQ Change From Baseline in Overall Score, Median [1]: −1.13
RQLQ Change From Baseline in Practical Problems, LS Mean [1]: −1.59
RQLQ Change From Baseline in Practical Problems, Mean [1]: −1.50
RQLQ Change From Baseline in Practical Problems, Median [1]: −1.33
RQLQ Change From Baseline in Sleep, LS Mean [1]: −1.23
RQLQ Change From Baseline in Sleep, Mean [1]: −1.02
RQLQ Change From Baseline in Sleep, Median [1]: −1.00
Primary Reason for Discontinuation From Study: Adverse Event ([2]; All Randomized Patients): 0 (0.0) N (%)
Number (%) Patients With Treatment-Related AEs by Maximum Severity ([2]; Mild): 1 (2.0) Number (%)
Number (%) Patients With Treatment-Related AEs by Maximum Severity ([2]; Moderate): 0 (0.0) Number (%)
Treatment-Related Adverse Events: Any Adverse Event [2, 3]: 1 (2.0) No. of Patients (%)
Treatment-Related Adverse Events: DRY MOUTH [2, 3]: 0 (0.0) No. of Patients (%)
Treatment-Related Adverse Events: DYSGEUSIA [2, 3]: 1 (2.0) No. of Patients (%)
Treatment-Related Adverse Events: EPISTAXIS [2, 3]: 0 (0.0) No. of Patients (%)
Treatment-Related Adverse Events: GASTROINTESTINAL DISORDERS, Any Preferred Term [2, 3]: 1 (2.0) No. of Patients (%)
Treatment-Related Adverse Events: HEADACHE [2, 3]: 0 (0.0) No. of Patients (%)
Treatment-Related Adverse Events: NASAL DISCOMFORT [2, 3]: 0 (0.0) No. of Patients (%)
Treatment-Related Adverse Events: NERVOUS SYSTEM DISORDERS, Any Preferred Term [2, 3]: 0 (0.0) No. of Patients (%)
Treatment-Related Adverse Events: RESPIRATORY, THORACIC AND MEDIASTINAL DISORDERS, Any Preferred Term [2, 3]: 0 (0.0) No. of Patients (%)
Treatment-Related Adverse Events: STOMACH DISCOMFORT [2, 3]: 0 (0.0) No. of Patients (%)
Treatment-Related Adverse Events: Any Adverse Event [2, 4]: 3 (6.1) No. of Patients (%)
Treatment-Related Adverse Events: DRY MOUTH [2, 4]: 0 (0.0) No. of Patients (%)
Treatment-Related Adverse Events: DYSGEUSIA [2, 4]: 3 (6.1) No. of Patients (%)
Treatment-Related Adverse Events: EPISTAXIS [2, 4]: 0 (0.0) No. of Patients (%)
Treatment-Related Adverse Events: GASTROINTESTINAL DISORDERS, Any Preferred Term [2, 4]: 3 (6.1) No. of Patients (%)
Treatment-Related Adverse Events: HEADACHE [2, 4]: 0 (0.0) No. of Patients (%)
Treatment-Related Adverse Events: NASAL DISCOMFORT [2, 4]: 0 (0.0) No. of Patients (%)
Treatment-Related Adverse Events: NERVOUS SYSTEM DISORDERS, Any Preferred Term [2, 4]: 0 (0.0) No. of Patients (%)
Treatment-Related Adverse Events: RESPIRATORY, THORACIC AND MEDIASTINAL DISORDERS, Any Preferred Term [2, 4]: 0 (0.0) No. of Patients (%)
Treatment-Related Adverse Events: STOMACH DISCOMFORT [2, 4]: 0 (0.0) No. of Patients (%)
Number (%) Patients With Any AEs: All Treatment-Related AEs ([2]; Safety Population): 4 (8.2) Number (%)
Number (%) of Deaths ([2]; Safety Population): 0 (0.0) Number (%)
Number (%) of Patients With Serious AEs ([2]; Safety Population): 0 (0.0) Number (%)
Number of Adverse Events Reported: All Treatment-Emergent AEs ([2]; Safety Population): 9
Number of Adverse Events Reported: All Treatment-Related AEs ([2]; Safety Population): 4
Number (%) Patients With Treatment-Related AEs by Maximum Severity ([2]; Severe): 3 (6.1) Number (%)
Treatment-Emergent AE: Any Adverse Event ([2]; Total): 8 (16.3) No. of Patients (%)
Treatment-Emergent AE: DRY MOUTH ([2]; Total): 0 (0.0) No. of Patients (%)
Treatment-Emergent AE: DYSGEUSIA ([2]; Total): 4 (8.2) No. of Patients (%)
Treatment-Emergent AE: EAR AND LABYRINTH DISORDERS, Any Preferred Term ([2]; Total): 1 (2.0) No. of Patients (%)
Treatment-Emergent AE: EAR PAIN ([2]; Total): 1 (2.0) No. of Patients (%)
Treatment-Emergent AE: EPISTAXIS ([2]; Total): 0 (0.0) No. of Patients (%)
Treatment-Emergent AE: GASTROINTESTINAL DISORDERS, Any Preferred Term ([2]; Total): 4 (8.2) No. of Patients (%)
Treatment-Emergent AE: HEADACHE ([2]; Total): 2 (4.1) No. of Patients (%)
Treatment-Emergent AE: MUSCULOSKELETAL AND CONNECTIVE TISSUE DISORDERS, Any Preferred Term ([2]; Total): 1 (2.0) No. of Patients (%)
Treatment-Emergent AE: MYALGIA ([2]; Total): 0 (0.0) No. of Patients (%)
Treatment-Emergent AE: NASAL DISCOMFORT ([2]; Total): 0 (0.0) No. of Patients (%)

Source: patent publication US8758816B2, “Compositions comprising azelastine and methods of use thereof” (priority 2004, dated 2014)
